Reference: US20260284202A1, “CONJUGATES OF SAPONIN AND ANTISENSE OLIGONUCLEOTIDES FOR USE IN THE TREATMENT OF NEURODEGENERATIVE DISEASES” (priority 2023, published 2026)

Experiments:
Assay type in all cases: cell-based, murine
Malat1 mRNA = Malat1 mRNA knockdown in Neuro-2a cells (qRT-PCR); settings: for enhancing effect on Malat1 mRNA reduction in co-administration: named molecule titrated with fixed 200 nM Malat1 ASO; for Malat1 RNA still measurable: 20.000 nM Malat1 ASO alone or co-administered with 1 μM of the named molecule; for co-administration enhancement effect on Malat1 ASO efficacy: named molecule at 1 μM with titrated Malat1 ASO
Method: Neuro-2a (murine neuroblastoma cells) were cultured in DMEM (PAN-Biotech GmbH) supplemented with 10% fetal bovine serum (FBS, PAN-Biotech GmbH) and Pen/Strep (PAN-Biotech GmbH). For experiments, Neuro-2a cells were harvested, resuspended at 60.000 cells/mL and seeded at a density of 36.000 cells/well or 6.000 cells/well for the 24- or 96-well plates (Greiner BioOne). Cells were incubated overnight at 37° C. Before the start of treatment, 210 µL or 35 μL medium was added per well, respectively, followed by the conjugates from a 10× concentrated stock solution in DPBS (PAN-Biotech GmbH). Plates were incubated for 72 hr at 37° C. before the cells of the 24-well plates were harvested for gene expression analysis and the cell viability was assessed on the 96-well plates.
(§1) Total RNA from cells was isolated using TRIzol™ Reagent (Thermo Scientific) according to the manufacturer's instruction. Conversion into cDNA was performed using iScript™ cDNA Synthesis Kit (BioRad) using standard protocols. Gene expression levels of the gene of interest (GOI) and levels of specific housekeeping genes were determined using quantitative real-time PCR assays (qRT-PCR) using iTaq™ Universal SYBR® Green Supermix (BioRad) and the Light Cycler 480 II (Roche Diagnostics) with specific DNA primers, listed in Table A3. Each analysis reaction was performed in triplicate. Analysis was done by the ΔCt method to determine GOI expression relative to 2 specific housekeeping control mRNAs. Results are expressed as % relative GOI expression levels after normalization to DPBS treated control cells.
(§2) Neuro-2a cells (murine neuroblastoma cell line) were cultured in DMEM (PAN-Biotech GmbH) supplemented with 10% fetal bovine serum (FBS, PAN-Biotech GmbH) and Pen/Strep (PAN-Biotech GmbH). For experiments, Neuro-2a cells were harvested, resuspended at 60.000 cells/mL and seeded at a density of 36.000 cells/well or 6.000 cells/well for the 24 or 96-well plates (Greiner BioOne). Cells were incubated overnight at 37° C. Before the start of treatment, either 210 μL or 35 μL media was added per well resp., followed by the compounds from a 10× concentrated stock solution in DPBS (PAN-Biotech GmbH). In the control wells, or when only one compound was applied in treatment, additional DPBS was added so that the final volume per well was 900 µL or 150 μL for the 24 or 96-well plates (wp), respectively. Plates were incubated for 72 hr at 37° C. before the cells of the 24 wp were harvested for gene expression analysis or exon skip/aberrant transcript analysis and the cell viability was assessed on the 96 wp.
as §1, with “LightCycler” for “Light Cycler”, “A6.” for “A3.”

Sod1 RNA transcripts = experiment: Sod1 aberrant transcript / exon skip in Neuro-2a cells (PCR gel analysis)
Method: Neuro-2a (murine neuroblastoma cells) were cultured in DMEM (PAN-Biotech GmbH) supplemented with 10% fetal bovine serum (FBS, PAN-Biotech GmbH) and Pen/Strep (PAN-Biotech GmbH). For experiments Neuro-2a cells were harvested, resuspended at 70.000 cells/mL and seeded at a density of 42.000 cells/well or 7.000 cells/well for the 24 or 96-well plates (Greiner BioOne). Cells were incubated overnight at 37° C. Before the start of treatment 120 μL or 20 μL media was added per well resp., followed by both saponin and/or PMO from a 10× concentrated stock solution in DPBS (PAN-Biotech GmbH). […] Plates were incubated for 72 hr at 37° C. before the cells of the 24 wp were harvested for gene expression analysis and the cell viability was assessed on the 96 wp.
Total RNA from cells was isolated using TRIzol™ Reagent (Thermo Scientific) according to the manufacturer's instruction. […] The gene expression was determined on 50 ng cDNA using the SapphireAmp Fast PCR Master Mix (Takara) with specific DNA primers, listed in Table A4. The PCR product was separated on a 2% agarose gel and fragments were analysed on the ChemiDoc XRS+ (BioRad) using Image Lab software (BioRad). For quantification of the % exon skip, the signal intensity of the aberrant transcript(s) (Mm Sod1 448 bp and 378 bp was divided over the total signal intensity of the skipped fragment(s)+full length fragment (Mm Sod1 545 bp)×100. […]

Sod1 transcript = experiment: Remaining full length Sod1 transcript in Neuro-2a cells (qRT-PCR); settings: PMO without saponin component
Method: as §2, with “In the control wells, or when only one compound was applied in treatment, additional DPBS was added so that the final volume per well was 900 µL or 150 μL for the 24 or 96-well plates (wp), respectively.” left out
Total RNA from cells was isolated using TRIzol™ Reagent (Thermo Scientific) according to the manufacturer's instruction. […] Gene expression levels of the gene of interest (GOI) and levels of specific housekeeping genes were determined using quantitative real-time PCR assays (qRT-PCR) using iTaq™ Universal SYBR® Green Supermix (BioRad) and the LightCycler 480 II (Roche Diagnostics) with specific DNA primers, listed in Table A6. […] Results are expressed as % relative GOI expression levels after normalization to DPBS treated control cells.

Row | Compound | enhancing effect on Malat1 mRNA reduction in co-administration (Malat1 mRNA) | Malat1 RNA still measurable (Malat1 mRNA; 4320 min) | co-administration enhancement effect on Malat1 ASO efficacy (Malat1 mRNA) | also measured
1 | CC1(C)[C@@H](O[C@H]2O[C@H](C(=O)O)[C@@H](O)[C@H](O)[C@H]2O[C@@H]2O[C@H](C(=O)O)[C@@H](O)[C@H](O)[C@H]2O)CC[C@]2(C)[C@H]3C(=O)C=C4[C@@H]5C[C@@](C)(C(=O)O)CC[C@]5(C)CC[C@@]4(C)[C@]3(C)CC[C@@H]12 [glycyrrhizin] | no enhancing effect | – | – | –
2 | CC(=O)OC1C(C)OC(OC2C(C)OC(OC(=O)[C@]34CCC(C)(C)CC3C3=CCC5[C@@]6(C)CC[C@H](OC7OC(C(=O)O)C(O)C(OC8OCC(O)C(O)C8O)C7OC7OC(CO)C(O)C(O)C7O)[C@@](C)(/C=N/NC(=O)CCCCCN7C(=O)CC(SCCO)C7=O)C6CC[C@@]5(C)[C@]3(C)C[C@H]4O)C(OC3OC(C)C(OC4OCC(O)C(OC5OC(CO)C(O)C(O)C5O)C4O)C(O)C3O)C2O)C(O)C1OC1OCC(O)C(O)C1O (stereo partly drawn) [SO1861-AH-Block] | efficacious | – | – | concentration above which complete loss of Malat1 mRNA expression is achieved (Malat1 mRNA; titrated with fixed 200 nM Malat1 ASO): above 3200 nM
3 | C[C@H]1O[C@@H](O[C@H]2[C@@H](O)C[C@H](O[C@H]3[C@@H](O)C[C@H](O[C@H]4CC[C@@]5(C)[C@H](CC[C@@H]6[C@@H]5C[C@@H](O)[C@]5(C)[C@@H](C7=CC(=O)OC7)CC[C@]65O)C4)O[C@@H]3C)O[C@@H]2C)C[C@H](O)[C@@H]1O [digoxin] | no enhancing effect | 10-15% | not observed | –
4 | SOD1 PMO: PMO targeting murine Sod1, SEQ ID: 20, GCCAGCCTAGGACCTACCTTGTGTA (all phosphorodiamidate morpholino (PMO)) | – | – | – | induction of aberrant Sod1 transcripts (Sod1 RNA transcripts; PMO alone, up to 50 μM PMO (FIG. 4)): did not induce any aberrant Sod1 transcripts; activity (aberrant transcript induction, nonsense mediated mRNA decay) (Sod1 RNA transcripts; without saponin component (FIG. 18C, 18D)): did not show any activity at any of the concentrations tested; reduction of full length Sod1 transcript (Sod1 transcript): not able to reduce transcript
5 | C[C@H]1CC[C@]2(NC1)O[C@H]1C[C@H]3[C@@H]4CC[C@H]5C[C@@H](O[C@@H]6O[C@H](CO)[C@H](O[C@@H]7O[C@H](CO)[C@@H](O)[C@H](O[C@@H]8OC[C@@H](O)[C@H](O)[C@H]8O)[C@H]7O[C@@H]7O[C@H](CO)[C@@H](O)[C@H](O)[C@H]7O)[C@H](O)[C@H]6O)CC[C@]5(C)[C@H]4CC[C@]3(C)[C@H]1[C@@H]2C [tomatine] | no enhancing effect | 10-15% | not observed | –
6 | C[C@@H]1CC[C@@]2(OC1)O[C@H]1[C@@H](O)[C@H]3[C@@H]4CC[C@H]5C[C@@H](O[C@@H]6O[C@H](CO)[C@H](O[C@@H]7O[C@H](CO)[C@@H](O)[C@H](O[C@@H]8OC[C@@H](O)[C@H](O)[C@H]8O)[C@H]7O[C@@H]7O[C@H](CO)[C@H](O)[C@H](O[C@@H]8O[C@H](CO)[C@@H](O)[C@H](O)[C@H]8O)[C@H]7O)[C@H](O)[C@H]6O)[C@H](O)C[C@]5(C)[C@H]4CC[C@]3(C)[C@H]1[C@@H]2C [digitonin] | – | 10-15% | not observed | reduction in Malat1 mRNA (Malat1 mRNA; 10.000 nM of named molecule with 200 nM Malat1 ASO, 4320 min): approximately 70%
